# Results: patent publication US11331289B2, “Antimicrobial composition” (priority 2017, dated 2022)
# Assays:
# [1] = test system: Methicillin-Resistant Staphylococcus pseudintermedius (MRSP); assay: Time-killing curves, conclusion over strains and inocula; assay type: cell-based; conditions: two inocula, two strains
# Excerpt: (§1) The objective of this study is to assess in vitro the time-killing curves of oxyclozanide against four strains of Methicillin-Resistant Staphylococcus from dogs.
# (§2) Two Methicillin-Resistant Staphylococcus aureus (MRSA) and two Methicillin-Resistant Staphylococcus pseudintermedius (MRSP) isolated from the clinics have been tested.
# (§3) The assessment of time-killing curves has been realized by a broth macrodilution method (Mueller-Hinton II Broth).
# [2] = test system: Methicillin-Resistant Staphylococcus aureus (MRSA); assay: as above; assay type: cell-based; conditions: two inocula, two strains
# Excerpt: as §1, §2, §3
# [3] = test system: MRSA 16110; assay: Time-killing curve, inoculum 10^6 CFU/ml (MIC 1 μg/ml); assay type: cell-based, Staphylococcus aureus
# Method: as §1, §2, §3
# (§4) Oxyclozanide is diluted in (DMSO) into sterile tubes in order to obtain the following concentrations from 800 to 6.25 μg/ml. Those concentrations and stock standard solution are then diluted (1/10) in Mueller-Hinton II Broth in order to obtain the following concentrations from […] (See Table 2).
# (§5) Each operation is performed under sterile conditions. Each working standard solution (10*the final active ingredient concentration) is distributed in tubes (1 ml, for a final volume of 10 ml after addition of 9 ml of inoculum). One tube without active ingredient is used as growth control (Concentration=0).
# (§6) Bacterial isolates are sub-cultured from one cryobead on Columbia agar supplemented with 5% of blood. Pure cultures are incubated during 18-24 hours at 37° C. Three to five isolated colonies of similar appearance are selected from a previous culture and transferred into tubes containing 9 ml of Mueller-Hinton II Broth. The broth is incubated during 12-18 hours at 37° C. 0.5 to 1 ml of this broth is inoculated to another Mueller-Hinton II Broth 9 ml tube which is incubated during 3 to 4 hours at 37° C. to reach the exponential growth phase. The bacterial inoculum grown exponential phase is suspended to an optical density of McFarland standard scale 0.5 equivalent to a bacterial density of 10^8 CFU/ml and then adjusted to a concentration of about 5.10^5 CFU/ml as indicated by the guideline CLSI M26-A and to a second inoculum tested: 10^6 CFU/ml.
# (§7) 9 ml of bacterial inoculum grown to exponential phase is added to 1 ml of active ingredient (or Mueller Hinton II Broth for the growth control). Tubes are incubated at 35° C. during 24 hours.
# (§8) At times 0, 2, 4, 6 and 24 hours, 100 μl of broth of each tube is sampled and diluted in microplates:
# (§9) Each well is re-cultured by streaking 10 μl on Columbia agar supplemented with 5% of blood. Plates are incubated at 37° C. during 18-24 hours incubation. Thus, residual bacterial concentrations are determined (CFU/ml). Results are expressed in log10 values of CFU/ml over-time in broth. Due to the procedure used, the minimal bacterial concentration that can be assessed is 10^2 CFU/ml.
# [4] = test system: MRSA 16116; assay: Time-killing curve, inoculum 5.10^5 CFU/ml (MIC 0.5 μg/ml); assay type: cell-based, Staphylococcus aureus
# Method: as §1, §2, §3, §4, §5, §6, §7, §8, §9
# [5] = test system: MRSP 16127; assay: Time-killing curve, inoculum 10^6 CFU/ml (MIC 0.25 μg/ml); assay type: cell-based, Staphylococcus pseudintermedius
# Method: as §1, §2, §3, §4, §5, §6, §7, §8, §9
smiles,measurement,setting,value
O=C(Nc1cc(Cl)cc(Cl)c1O)c1c(O)c(Cl)cc(Cl)c1Cl [Oxyclozanide],Concentrations with concentration-dependent bactericidal effect,[1],>= 2 MIC
same,Concentrations with concentration-dependent bactericidal effect,[2],>= 2 MIC
same,Counting results,"[3]; 1 MIC, 0 h",2.000E+06 CFU/ml
same,Counting results,"[3]; 1 MIC, 2 h",8.300E+04 CFU/ml
same,Counting results,"[3]; 1 MIC, 4 h",3.400E+04 CFU/ml
same,Counting results,"[3]; 1 MIC, 6 h",3.500E+03 CFU/ml
same,Counting results,"[3]; 1 MIC, 24 h",7.900E+06 CFU/ml
same,Counting results,"[3]; 2 MIC, 0 h",2.000E+06 CFU/ml
same,Counting results,"[3]; 2 MIC, 2 h",4.000E+02 CFU/ml
same,Counting results,"[3]; 2 MIC, 4 h",2.000E+02 CFU/ml
same,Counting results,"[3]; 2 MIC, 6 h",1.000E+02 CFU/ml
same,Counting results,"[3]; 2 MIC, 24 h",1.000E+02 CFU/ml
same,Counting results,"[3]; 4 MIC, 0 h",2.000E+06 CFU/ml
same,Counting results,"[3]; 4 MIC, 2 h",1.000E+02 CFU/ml
same,Counting results,"[3]; 4 MIC, 4 h",1.000E+02 CFU/ml
same,Counting results,"[3]; 4 MIC, 6 h",1.000E+02 CFU/ml
same,Counting results,"[3]; 4 MIC, 24 h",1.000E+02 CFU/ml
same,Counting results,"[3]; 8 MIC, 0 h",2.000E+06 CFU/ml
same,Counting results,"[3]; 8 MIC, 2 h",1.000E+02 CFU/ml
same,Counting results,"[3]; 8 MIC, 4 h",1.000E+02 CFU/ml
same,Counting results,"[3]; 8 MIC, 6 h",1.000E+02 CFU/ml
same,Counting results,"[3]; 8 MIC, 24 h",1.000E+02 CFU/ml
same,Counting results,"[3]; 16 MIC, 0 h",2.000E+06 CFU/ml
same,Counting results,"[3]; 16 MIC, 2 h",2.000E+02 CFU/ml
same,Counting results,"[3]; 16 MIC, 4 h",1.000E+02 CFU/ml
same,Counting results,"[3]; 16 MIC, 6 h",1.000E+02 CFU/ml
same,Counting results,"[3]; 16 MIC, 24 h",1.000E+02 CFU/ml
same,Time to obtain bactericidal effect at 4 MIC,"[3]; 16110/10^6 CFU/ml, >=3 log10 decrease in CFU",2 h
same,Counting results,"[3]; ¼ MIC, 0 h",2.000E+06 CFU/ml
same,Counting results,"[3]; ¼ MIC, 2 h",8.000E+06 CFU/ml
same,Counting results,"[3]; ¼ MIC, 4 h",4.000E+07 CFU/ml
same,Counting results,"[3]; ¼ MIC, 6 h",2.400E+07 CFU/ml
same,Counting results,"[3]; ¼ MIC, 24 h",4.100E+07 CFU/ml
same,Counting results,"[3]; ½ MIC, 0 h",2.000E+06 CFU/ml
same,Counting results,"[3]; ½ MIC, 2 h",6.900E+05 CFU/ml
same,Counting results,"[3]; ½ MIC, 4 h",4.300E+06 CFU/ml
same,Counting results,"[3]; ½ MIC, 6 h",4.800E+07 CFU/ml
same,Counting results,"[3]; ½ MIC, 24 h",3.700E+07 CFU/ml
same,Counting results,"[4]; 1 MIC, 0 h",3.900E+05 CFU/ml
same,Counting results,"[4]; 1 MIC, 2 h",1.700E+06 CFU/ml
same,Counting results,"[4]; 1 MIC, 4 h",2.500E+07 CFU/ml
same,Counting results,"[4]; 1 MIC, 6 h",1.600E+08 CFU/ml
same,Counting results,"[4]; 1 MIC, 24 h",1.300E+08 CFU/ml
same,Counting results,"[4]; 2 MIC, 0 h",3.900E+05 CFU/ml
same,Counting results,"[4]; 2 MIC, 2 h",1.200E+05 CFU/ml
same,Counting results,"[4]; 2 MIC, 4 h",1.300E+04 CFU/ml
same,Counting results,"[4]; 2 MIC, 6 h",1.400E+04 CFU/ml
same,Counting results,"[4]; 2 MIC, 24 h",3.500E+06 CFU/ml
same,Counting results,"[4]; 4 MIC, 0 h",3.900E+05 CFU/ml
same,Counting results,"[4]; 4 MIC, 2 h",6.000E+03 CFU/ml
same,Counting results,"[4]; 4 MIC, 4 h",6.000E+02 CFU/ml
same,Counting results,"[4]; 4 MIC, 6 h",4.000E+02 CFU/ml
same,Counting results,"[4]; 4 MIC, 24 h",1.000E+02 CFU/ml
same,Counting results,"[4]; 8 MIC, 0 h",3.900E+05 CFU/ml
same,Counting results,"[4]; 8 MIC, 2 h",5.000E+02 CFU/ml
same,Counting results,"[4]; 8 MIC, 4 h",1.000E+02 CFU/ml
same,Counting results,"[4]; 8 MIC, 6 h",1.000E+02 CFU/ml
same,Counting results,"[4]; 8 MIC, 24 h",1.000E+02 CFU/ml
same,Counting results,"[4]; 16 MIC, 0 h",3.900E+05 CFU/ml
same,Counting results,"[4]; 16 MIC, 2 h",3.000E+02 CFU/ml
same,Counting results,"[4]; 16 MIC, 4 h",1.000E+02 CFU/ml
same,Counting results,"[4]; 16 MIC, 6 h",3.000E+02 CFU/ml
same,Counting results,"[4]; 16 MIC, 24 h",1.000E+02 CFU/ml
same,Time to obtain bactericidal effect at 4 MIC,"[4]; 16116/5.10^5 CFU/ml, >=3 log10 decrease in CFU",4 to 6 h
same,Counting results,"[4]; ¼ MIC, 0 h",3.900E+05 CFU/ml
same,Counting results,"[4]; ¼ MIC, 2 h",2.000E+06 CFU/ml
same,Counting results,"[4]; ¼ MIC, 4 h",4.000E+07 CFU/ml
same,Counting results,"[4]; ¼ MIC, 6 h",3.000E+08 CFU/ml
same,Counting results,"[4]; ¼ MIC, 24 h",1.900E+09 CFU/ml
same,Counting results,"[4]; ½ MIC, 0 h",3.900E+05 CFU/ml
same,Counting results,"[4]; ½ MIC, 2 h",1.700E+06 CFU/ml
same,Counting results,"[4]; ½ MIC, 4 h",3.000E+07 CFU/ml
same,Counting results,"[4]; ½ MIC, 6 h",1.400E+08 CFU/ml
same,Counting results,"[4]; ½ MIC, 24 h",2.600E+08 CFU/ml
same,Counting results,"[5]; 1 MIC, 0 h",9.000E+05 CFU/ml
same,Counting results,"[5]; 1 MIC, 2 h",4.100E+05 CFU/ml
same,Counting results,"[5]; 1 MIC, 4 h",4.000E+06 CFU/ml
same,Counting results,"[5]; 1 MIC, 6 h",7.500E+06 CFU/ml
same,Counting results,"[5]; 1 MIC, 24 h",9.000E+07 CFU/ml
same,Counting results,"[5]; 2 MIC, 0 h",9.000E+05 CFU/ml
same,Counting results,"[5]; 2 MIC, 2 h",4.100E+05 CFU/ml
same,Counting results,"[5]; 2 MIC, 4 h",5.400E+05 CFU/ml
same,Counting results,"[5]; 2 MIC, 6 h",2.500E+06 CFU/ml
same,Counting results,"[5]; 2 MIC, 24 h",7.600E+06 CFU/ml
same,Counting results,"[5]; 4 MIC, 0 h",9.000E+05 CFU/ml
same,Counting results,"[5]; 4 MIC, 2 h",1.700E+04 CFU/ml
same,Counting results,"[5]; 4 MIC, 4 h",1.500E+03 CFU/ml
same,Counting results,"[5]; 4 MIC, 6 h",3.000E+02 CFU/ml
same,Counting results,"[5]; 4 MIC, 24 h",8.000E+02 CFU/ml
same,Counting results,"[5]; 8 MIC, 0 h",9.000E+05 CFU/ml
same,Counting results,"[5]; 8 MIC, 2 h",5.200E+03 CFU/ml
same,Counting results,"[5]; 8 MIC, 4 h",1.000E+02 CFU/ml
same,Counting results,"[5]; 8 MIC, 6 h",1.000E+02 CFU/ml
same,Counting results,"[5]; 8 MIC, 24 h",1.000E+02 CFU/ml
same,Counting results,"[5]; 16 MIC, 0 h",9.000E+05 CFU/ml
same,Counting results,"[5]; 16 MIC, 2 h",1.200E+03 CFU/ml
same,Counting results,"[5]; 16 MIC, 4 h",1.000E+02 CFU/ml
same,Counting results,"[5]; 16 MIC, 6 h",1.000E+02 CFU/ml
same,Counting results,"[5]; 16 MIC, 24 h",1.000E+02 CFU/ml
same,Time to obtain bactericidal effect at 4 MIC,"[5]; 16127/10^6 CFU/ml, >=3 log10 decrease in CFU",4 to 6 h
same,Counting results,"[5]; ¼ MIC, 0 h",9.000E+05 CFU/ml
same,Counting results,"[5]; ¼ MIC, 2 h",5.100E+05 CFU/ml
same,Counting results,"[5]; ¼ MIC, 4 h",4.200E+06 CFU/ml
same,Counting results,"[5]; ¼ MIC, 6 h",3.000E+07 CFU/ml
same,Counting results,"[5]; ¼ MIC, 24 h",4.900E+10 CFU/ml
same,Counting results,"[5]; ½ MIC, 0 h",9.000E+05 CFU/ml
same,Counting results,"[5]; ½ MIC, 2 h",4.300E+05 CFU/ml
same,Counting results,"[5]; ½ MIC, 4 h",3.700E+06 CFU/ml
same,Counting results,"[5]; ½ MIC, 6 h",2.100E+07 CFU/ml
same,Counting results,"[5]; ½ MIC, 24 h",3.400E+09 CFU/ml
